The values that follow come from patent US11866430B2, “Naphthyridinone compounds useful as T cell activators” (priority 2018, dated 2024).

Where two headings read alike, the source gives them in different places. A value given as a limit tells only on which side of the number the result lay.

As usually defined, the EC50 is the concentration giving half of the maximal effect. Broadly, the IC50 is the concentration that inhibits the measured activity by half.

In assay [1] the test system is naïve human CD8 T cells. The experiment in a line: CellTiter-Glo CD8 T Cell Proliferation Assay. The class given is cell-based. To be noted: Homo sapiens, T-cell, CellTiter-Glo CD8 T cell proliferation, normalized; read-out: CD8 GLO normalized EC50.
The test system of assay [2] is Human venous whole blood. The assay is described as follows: Human Whole Blood IFN-γ Assay. Format: cell-based. Here is the method:
Human venous whole blood (22.5 μL per well), obtained from healthy donors, was pre-treated with compounds for one hour at 37° C. in a humidified 95% air/5% CO2 incubator. The blood was stimulated with 2.5 μL anti-human CD3 and anti-CD28 mAb at a final concentration of 1 μg/mL each for 24 hours at 37° C. IFN-γ in the supernatants was measured using AlphaLISA kit (Cat #AL217).

The subject of assay [3] is pre-activated CD4 T cells and Raji cells. The assay is described as follows: Raji CD4 T Cell IL2 Assay. Format: cell-based.
Assay [4] concerns naïve human CD8 T cells. The experiment in a line: cells. Particulars: 3 μM Example 40 co-stimulation as 100% activation. The method, boiled down: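 Thawed frozen cells, 40,000/well, stimulated on plate-bound anti-CD3 (coated at 0.05 μg/mL) plus soluble anti-CD28 0.1 μg/mL; compounds added immediately after plating. After 20 h at 37° C., supernatant IFN-γ quantitated by AlphaLISA, counts converted to IFN-γ concentration […].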

Assay [5] concerns the target human DGKα (Homo sapiens (Human), UniProt P23743). The experiment in a line: biochemical. To be noted: detergent/lipid micelle substrate; read-out: DGKα IC50. The procedure, abridged: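 Full-length human DGKα or DGKζ (C-terminal His tag, Sf9-expressed; 20 nM 4× stock) was preincubated 10 min at room temperature with PS/DAG octyl glucoside micelles in MOPS pH 7.5 buffer with MgCl2, CaCl2 and DTT. It was then started with ATP (300 uM addition) and run for 1 hr, with ADP-Glo luminescence read-out.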

[6] abbreviates: Homo sapiens, human whole blood, anti-CD3 plus anti-CD28 as baseline, 3 μM Example 40 co-stimulation as 100% activation, read-out: INF-γ Whole Blood Normalized Agonist EC50.
Where [7] appears, read: Homo sapiens, T-cell, read-out: HuCD8 INFG Normalized EC50, anti-CD3 plus anti-CD28 as baseline.
The mark [8] stands for this setting: Homo sapiens, read-out: INF-γ Whole Blood Agonist EC50.
The mark [9] stands for this setting: human whole blood, anti-CD3 plus anti-CD28 as baseline, 3 μM Example 40 co-stimulation as 100% activation, read-out: INF-γ Whole Blood Normalized Agonist EC50.
The mark [10] stands for this setting: read-out: HuCD8 INFG Normalized EC50, anti-CD3 plus anti-CD28 as baseline.

Chain of human DGKα (P23743 other isoform, or with tags, fused parts or gaps): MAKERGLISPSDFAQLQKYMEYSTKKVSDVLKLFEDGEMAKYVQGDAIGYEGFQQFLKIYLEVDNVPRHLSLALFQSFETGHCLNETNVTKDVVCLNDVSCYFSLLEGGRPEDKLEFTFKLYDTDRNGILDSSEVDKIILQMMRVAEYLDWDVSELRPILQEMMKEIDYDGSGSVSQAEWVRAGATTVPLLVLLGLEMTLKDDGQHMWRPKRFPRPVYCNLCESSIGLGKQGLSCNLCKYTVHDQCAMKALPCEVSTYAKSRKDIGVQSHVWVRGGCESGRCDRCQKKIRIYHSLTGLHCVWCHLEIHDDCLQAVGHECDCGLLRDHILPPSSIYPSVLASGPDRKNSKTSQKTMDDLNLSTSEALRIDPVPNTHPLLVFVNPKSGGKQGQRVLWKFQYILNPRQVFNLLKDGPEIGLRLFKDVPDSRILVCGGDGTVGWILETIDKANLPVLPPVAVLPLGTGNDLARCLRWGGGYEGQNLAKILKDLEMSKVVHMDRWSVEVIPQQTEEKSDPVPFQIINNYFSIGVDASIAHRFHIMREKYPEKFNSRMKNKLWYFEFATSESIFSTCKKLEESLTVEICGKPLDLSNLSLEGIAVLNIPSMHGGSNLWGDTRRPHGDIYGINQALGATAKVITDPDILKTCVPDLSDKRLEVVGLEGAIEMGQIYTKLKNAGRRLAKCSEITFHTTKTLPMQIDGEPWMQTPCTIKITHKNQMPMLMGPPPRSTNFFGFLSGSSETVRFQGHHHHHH

As for `COc1ccc2c(n1)c(N1CCN(C(c3ccc(F)cc3)c3ccc(F)cc3OC)CC1)c(C#N)c(=O)n2C` (racemic) [Example 412, 4-{4-[(4-fluoro-2-methoxyphenyl)(4-fluorophenyl)methyl]piperazin-1-yl}-6-methoxy-1-methyl-2-oxo-1,2-dihydro-1,5-naphthyridine-3-carbonitrile], the EC50 in assay [1] worked out at 300 nM; in assay [2] (setting [6]), 3010 nM.

Turning to `COc1ccccc1C(c1ccc(F)cc1)N1CCN(c2c(C#N)c(=O)n(C)c3ccc(Br)nc23)CC1` (single isomer, unassigned) [Example 13, 6-bromo-4-{4-[(4-fluorophenyl)(2-methoxyphenyl)methyl]piperazin-1-yl}-1-methyl-2-oxo-1,2-dihydro-1,5-naphthyridine-3-carbonitrile], the EC50 was 5000 nM in assay [2] (setting [6]) and 10000 nM in assay [4] (setting [7]). Further, the results for the IC50 in assay [3] and in assay [5] were over 100000 nM and 9500 nM, respectively.

On to `COc1cc(F)ccc1C(c1ccc(F)cc1)N1CCN(c2c(C#N)c(=O)n(C)c3ccc(Br)nc23)CC1` (single isomer, unassigned) [Example 17, 6-bromo-4-{4-[(4-fluoro-2-methoxyphenyl)(4-fluorophenyl)methyl]piperazin-1-yl}-1-methyl-2-oxo-1,2-dihydro-1,5-naphthyridine-3-carbonitrile], for which the EC50 in assay [2] (setting [6]) stood at 1150 nM; in assay [2] (setting [8]) it was 670 nM; in assay [4] (setting [7]), 520 nM. In addition, in assay [5], the IC50 came out at 930 nM.

Turning to `CC(c1ccc(F)cc1)N1CCN(c2c([N+](=O)[O-])c(=O)n(C)c3ccc(C#N)nc23)CC1` (single isomer, unassigned) [Example 44, 8-(4-(1-(4-fluorophenyl)ethyl)piperazin-1-yl)-5-methyl-7-nitro-6-oxo-5,6-dihydro-1,5-naphthyridine-2-carbonitrile], the values for the EC50 in assay [2] (setting [6]) and in assay [4] (setting [7]) were 900 nM and 180 nM, respectively. Besides, the IC50 in assay [5] amounted to 230 nM.

As to `COc1cc(F)ccc1C(c1ccc(F)cc1)N1CCN(c2c([N+](=O)[O-])c(=O)n(C)c3ccc(C#N)nc23)CC1` (single isomer, unassigned) [Example 124, 8-(4-((4-fluoro-2-methoxyphenyl)(4-fluorophenyl)methyl)piperazin-1-yl)-5-methyl-7-nitro-6-oxo-5,6-dihydro-1,5-naphthyridine-2-carbonitrile], the EC50 in assay [1] was found to be 20 nM; in assay [2] (setting [6]) it was 100 nM; in assay [2] (setting [8]) it was 140 nM; in assay [4] (setting [7]) it was 10 nM. In addition, in assay [5], the IC50 is 750 nM.

Consider `C#CCn1c(=O)c([N+](=O)[O-])c(N2CCN(C(C)c3ccc(F)cc3)CC2)c2nc(C#N)ccc21` (single isomer, unassigned) [Example 137, 8-(4-(1-(4-fluorophenyl)ethyl)piperazin-1-yl)-7-nitro-6-oxo-5-(prop-2-yn-1-yl)-5,6-dihydro-1,5-naphthyridine-2-carbonitrile], for which the results for the EC50 in assay [2] (setting [9]) and in assay [4] (setting [7]) were 5000 nM and 40 nM, respectively. Also, the IC50 in assay [5] came to 280 nM.

Take `COc1cc(F)ccc1C(c1ccc(F)cc1)N1CCN(c2c(C#N)c(=O)n(C)c3ccc(C#N)nc23)CC1` (single isomer, unassigned) [Example 406, 8-{4-[(4-fluoro-2-methoxyphenyl)(4-fluorophenyl)methyl]piperazin-1-yl}-5-methy-6-oxo-5,6-dihydro-L5-naphthyridine-2,7-dicarbonitrile]: the results for the EC50 in assay [2] (setting [9]) and in assay [4] (setting [10]) were 2190 nM and 410 nM, respectively.

As for `COc1cc(F)ccc1C(c1ccc(F)cc1)N1CCN(c2c(C#N)c(=O)n(C)c3ccc(C#N)nc23)CC1` (single isomer, unassigned) [Example 407, 8-{4-[(4-fluoro-2-methoxyphenyl)(4-fluorophenyl)methyl]piperazin-1-yl}-5-methy-6-oxo-5,6-dihydro-L5-naphthyridine-2,7-dicarbonitrile], the EC50 turned out to be 780 nM in assay [2] (setting [9]) and 120 nM in assay [4] (setting [10]).

Take `Cc1ccc(CN2CCN(c3c(C#N)c(=O)n(C)c4ccc(Cl)nc34)CC2)cc1` [Example 386, 6-chloro-1-methyl-4-{4-[(4-methylphenyl)methyl]piperazin-1-yl}-2-oxo-1,2-dihydro-1,5-naphthyridine-3-carbonitrile]: the EC50 was 1240 nM in assay [2] (setting [6]) and 960 nM in assay [4] (setting [7]). Further, the IC50 in assay [5] turned out to be 150 nM.

`Cc1ccc(CN2CCN(c3c(C#N)c(=O)n(C)c4ccc(Cl)nc34)CC2)c(F)c1` [Example 423, 6-chloro-4-{4-[(2-fluoro-4-methylphenyl)methyl]piperazin-1-yl}-1-methyl-2-oxo-1,2-dihydro-1,5-naphthyridine-3-carbonitrile]: the EC50 was found to be 10000 nM in assay [2] (setting [6]) and 460 nM in assay [4] (setting [7]). For the same molecule, the IC50 in assay [3] (Homo sapiens, Raji) is over 100000 nM; in assay [5], 1400 nM.

With `Cn1c(=O)c(C#N)c(N2CCN(C(C)(C)c3ccc(F)cc3)CC2)c2nc(Cl)ccc21` [Example 425, 6-chloro-4-{4-[2-(4-fluorophenyl)propan-2-yl]piperazin-1-yl}-1-methyl-2-oxo-1,2-dihydro-1,5-naphthyridine-3-carbonitrile], the EC50 in assay [1] stood at 190 nM; in assay [2] (setting [6]), 10000 nM. For the same molecule, the IC50 is over 100000 nM in assay [3] (Homo sapiens, Raji) and 1800 nM in assay [5].
